Reference: patent US12304890B2, “R-type pyridyloxycarboxylic acid, salt and ester derivative thereof, and preparation method therefor, and herbicidal composition and application thereof” (Qingdao Kingagroot Chemical Compound Co., Ltd., priority 2018, dated 2025)

Tests used:
Format in all cases: in vivo
[1] = system: Monocotyledonous and dicotyledonous weed seeds and main crop seeds; assay: Post-emergence test experiment, other weeds and crops (Table 4, 1000 g a.i./ha); conditions: 3 weeks in greenhouse, fresh weight inhibition
Outline: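 Growth inhibition is scored on fresh weight. Spray solutions were made in acetone with tween-80, diluted in water, plus 1.5 L/ha methyl oleate emulsible concentrate. Plants from greenhouse-grown weed and crop seeds were treated post-emergence at 2-3 leaves, 2 weeks after sowing.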

Echinochloa crusgalli = assay: Post-emergence test experiment, Echinochloa crusgalli; conditions: 1000 g a.i./ha, 3 weeks in greenhouse, fresh weight inhibition
Method: (§1) The above described growth inhibition rate is fresh weight inhibition rate.
(§2) Post-emergence test experiment: Monocotyledonous and dicotyledonous weed seeds and main crop seeds (i. e. wheat, corn, rice, soybean, cotton, oilseed, millet and sorghum.) were put into a plastic pot loaded with soil. Then covered with 0.5-2 cm soil, the seeds were allowed to grow in good greenhouse environment. The test plants were treated at 2-3 leaf stage 2 weeks after sowing. The test compounds of the invention were dissolved with acetone respectively, then added with tween-80, and using 1.5 liters per hectare of an emulsible concentrate of methyl oleate as a synergist, and diluted by certain amount of water to certain concentration. The solution was sprayed to the plants with a sprayer. Then the plants were cultured for 3 weeks in the greenhouse, and the experiment result of weed controlling effect was listed in tables 4-5.

Digitaria sanguinalis = assay: Post-emergence test experiment, Digitaria sanguinalis; conditions: 1000 g a.i./ha, 3 weeks in greenhouse, fresh weight inhibition
Method: as §1, §2

SMILES | Activity level (growth inhibition rate), Abutilon theophrasti Medic. [1] | Activity level (growth inhibition rate), Galium aparine [1] | Activity level (growth inhibition rate), Monochoria Vaginalis [1] | Activity level (growth inhibition rate), Echinochloa crusgalli (Echinochloa crusgalli) | Activity level (growth inhibition rate), Digitaria sanguinalis (Digitaria sanguinalis)
CC(Oc1nc(F)c(Cl)c(N)c1Cl)C(=O)O.CNC (centres unmarked) [Compound 2-7] | 5 (Level 5: the growth inhibition rate is greater than 85%) | 5 (Level 5: the growth inhibition rate is greater than 85%) | 5 (Level 5: the growth inhibition rate is greater than 85%) | 5 (Level 5: the growth inhibition rate is greater than 85%) | 5 (Level 5: the growth inhibition rate is greater than 85%)
COC(=O)C(C)OC(=O)C(C)Oc1nc(F)c(Cl)c(N)c1Cl (centres unmarked) [Compound 2-295] | 5 (Level 5: the growth inhibition rate is greater than 85%) | 5 (Level 5: the growth inhibition rate is greater than 85%) | 5 (Level 5: the growth inhibition rate is greater than 85%) | 5 (Level 5: the growth inhibition rate is greater than 85%) | 5 (Level 5: the growth inhibition rate is greater than 85%)
CCCCC(CC)CSC(=O)[C@@H](C)Oc1nc(F)c(Cl)c(N)c1Cl (some centres unmarked) [Compound 2-158] | 5 (Level 5: the growth inhibition rate is greater than 85%) | 5 (Level 5: the growth inhibition rate is greater than 85%) | 5 (Level 5: the growth inhibition rate is greater than 85%) | 5 (Level 5: the growth inhibition rate is greater than 85%) | 5 (Level 5: the growth inhibition rate is greater than 85%)
CC(C)CCSC(=O)[C@@H](C)Oc1nc(F)c(Cl)c(N)c1Cl [Compound 2-90] | 5 (Level 5: the growth inhibition rate is greater than 85%) | 5 (Level 5: the growth inhibition rate is greater than 85%) | 5 (Level 5: the growth inhibition rate is greater than 85%) | 5 (Level 5: the growth inhibition rate is greater than 85%) | 5 (Level 5: the growth inhibition rate is greater than 85%)
CC(C)CCCCCOC(=O)[C@@H](C)Oc1nc(F)c(Cl)c(N)c1Cl [Compound 2-159] | 5 (Level 5: the growth inhibition rate is greater than 85%) | 5 (Level 5: the growth inhibition rate is greater than 85%) | 5 (Level 5: the growth inhibition rate is greater than 85%) | 5 (Level 5: the growth inhibition rate is greater than 85%) | 5 (Level 5: the growth inhibition rate is greater than 85%)
COC(=O)[C@@H](C)Oc1nc(F)c(Cl)c(N)c1C [Compound 2-29] | 5 (Level 5: the growth inhibition rate is greater than 85%) | 5 (Level 5: the growth inhibition rate is greater than 85%) | 5 (Level 5: the growth inhibition rate is greater than 85%) | 5 (Level 5: the growth inhibition rate is greater than 85%) | 5 (Level 5: the growth inhibition rate is greater than 85%)
CC(Oc1nc(F)c(Cl)c(N)c1Cl)C(=O)OCc1ccccc1Br (centres unmarked) [Compound 2-320] | 5 (Level 5: the growth inhibition rate is greater than 85%) | 5 (Level 5: the growth inhibition rate is greater than 85%) | 5 (Level 5: the growth inhibition rate is greater than 85%) | 5 (Level 5: the growth inhibition rate is greater than 85%) | 5 (Level 5: the growth inhibition rate is greater than 85%)
C#CCSC(=O)C(C)Oc1nc(F)c(Cl)c(N)c1Cl (centres unmarked) [Compound 2-274] | 5 (Level 5: the growth inhibition rate is greater than 85%) | 5 (Level 5: the growth inhibition rate is greater than 85%) | 5 (Level 5: the growth inhibition rate is greater than 85%) | 5 (Level 5: the growth inhibition rate is greater than 85%) | 5 (Level 5: the growth inhibition rate is greater than 85%)
C[C@@H](Oc1nc(F)c(Cl)c(N)c1Cl)C(=O)OCc1ccncc1 [Compound 2-344] | 5 (Level 5: the growth inhibition rate is greater than 85%) | 5 (Level 5: the growth inhibition rate is greater than 85%) | 5 (Level 5: the growth inhibition rate is greater than 85%) | 5 (Level 5: the growth inhibition rate is greater than 85%) | 5 (Level 5: the growth inhibition rate is greater than 85%)
CC(Oc1nc(F)c(Cl)c(N)c1Cl)C(=O)SCc1ccc(F)cc1 (centres unmarked) [Compound 2-313] | 5 (Level 5: the growth inhibition rate is greater than 85%) | 5 (Level 5: the growth inhibition rate is greater than 85%) | 5 (Level 5: the growth inhibition rate is greater than 85%) | 5 (Level 5: the growth inhibition rate is greater than 85%) | 5 (Level 5: the growth inhibition rate is greater than 85%)
C[C@@H](Oc1nc(F)c(Cl)c(N)c1Cl)C(=O)SC(C)(C)C [Compound 2-84] | 5 (Level 5: the growth inhibition rate is greater than 85%) | 5 (Level 5: the growth inhibition rate is greater than 85%) | 5 (Level 5: the growth inhibition rate is greater than 85%) | 5 (Level 5: the growth inhibition rate is greater than 85%) | 5 (Level 5: the growth inhibition rate is greater than 85%)
CC(Oc1nc(F)c(Cl)c(N)c1Cl)C(=O)Sc1cccc(C(C)C)c1 (centres unmarked) [Compound 2-360] | 5 (Level 5: the growth inhibition rate is greater than 85%) | 5 (Level 5: the growth inhibition rate is greater than 85%) | 5 (Level 5: the growth inhibition rate is greater than 85%) | 5 (Level 5: the growth inhibition rate is greater than 85%) | 5 (Level 5: the growth inhibition rate is greater than 85%)
CC(C)CCCSC(=O)[C@@H](C)Oc1nc(F)c(Cl)c(N)c1Cl [Compound 2-108] | 5 (Level 5: the growth inhibition rate is greater than 85%) | 5 (Level 5: the growth inhibition rate is greater than 85%) | 5 (Level 5: the growth inhibition rate is greater than 85%) | 5 (Level 5: the growth inhibition rate is greater than 85%) | 5 (Level 5: the growth inhibition rate is greater than 85%)
CC(C)OC(=O)[C@@H](C)Oc1nc(F)c(Cl)c(N)c1Cl [Compound 2-75] | 5 (Level 5: the growth inhibition rate is greater than 85%) | 5 (Level 5: the growth inhibition rate is greater than 85%) | 5 (Level 5: the growth inhibition rate is greater than 85%) | 5 (Level 5: the growth inhibition rate is greater than 85%) | 5 (Level 5: the growth inhibition rate is greater than 85%)
CC(Oc1nc(F)c(Cl)c(N)c1Cl)C(=O)SCc1ccc(Br)cc1 (centres unmarked) [Compound 2-325] | 5 (Level 5: the growth inhibition rate is greater than 85%) | 5 (Level 5: the growth inhibition rate is greater than 85%) | 5 (Level 5: the growth inhibition rate is greater than 85%) | 5 (Level 5: the growth inhibition rate is greater than 85%) | 5 (Level 5: the growth inhibition rate is greater than 85%)
C[C@@H](Oc1nc(F)c(Cl)c(N)c1Cl)C(=O)OCC(C)(C)C [Compound 2-91] | 5 (Level 5: the growth inhibition rate is greater than 85%) | 5 (Level 5: the growth inhibition rate is greater than 85%) | 5 (Level 5: the growth inhibition rate is greater than 85%) | 5 (Level 5: the growth inhibition rate is greater than 85%) | 5 (Level 5: the growth inhibition rate is greater than 85%)
